Test results published in PubChem BioAssay (NCI).
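In this assay, cells in 96-well plates receive the compound at five concentrations for 48 hours. Endpoints are linearly interpolated between the surrounding concentrations. TGI is the concentration that stops growth completely.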

How the values were obtained:
Assay in all cases: growth of human tumour cells (NCI), 48 h
COLO 205 colon = system: COLO 205 colon
NCI-H23 lung = system: NCI-H23 lung
EKVX NSCLC = system: EKVX NSCLC
786-0 renal = system: 786-0 renal
SNB-19 CNS = system: SNB-19 CNS
HCT-15 colon = system: HCT-15 colon
OVCAR-8 ovarian = system: OVCAR-8 ovarian
DU-145 prostate = system: DU-145 prostate
UO-31 renal = system: UO-31 renal
HL-60(TB) leukemia = system: HL-60(TB) leukemia
SN12C renal = system: SN12C renal
MALME-3M melanoma = system: MALME-3M melanoma
RXF 393 renal = system: RXF 393 renal
NCI-H522 lung = system: NCI-H522 lung
SF-539 CNS = system: SF-539 CNS
SK-MEL-5 melanoma = system: SK-MEL-5 melanoma
SK-MEL-2 melanoma = system: SK-MEL-2 melanoma
RPMI-8226 leukemia = system: RPMI-8226 leukemia
NCI-H460 lung = system: NCI-H460 lung
UACC-62 melanoma = system: UACC-62 melanoma
LOX IMVI melanoma = system: LOX IMVI melanoma
SF-268 CNS = system: SF-268 CNS
M14 melanoma = system: M14 melanoma
IGROV1 ovarian = system: IGROV1 ovarian
CAKI-1 renal = system: CAKI-1 renal
HOP-62 NSCLC = system: HOP-62 NSCLC
SK-OV-3 ovarian = system: SK-OV-3 ovarian
SR leukemia = system: SR leukemia
OVCAR-3 ovarian = system: OVCAR-3 ovarian
OVCAR-4 ovarian = system: OVCAR-4 ovarian
HCT-116 colon = system: HCT-116 colon
U251 CNS = system: U251 CNS
MDA-N = system: MDA-N
ACHN renal = system: ACHN renal
NCI/ADR-RES ovarian = system: NCI/ADR-RES ovarian
KM12 colon = system: KM12 colon
OVCAR-5 ovarian = system: OVCAR-5 ovarian
NCI-H226 lung = system: NCI-H226 lung
K-562 leukemia = system: K-562 leukemia
HS 578T breast = system: HS 578T breast
HT29 colon = system: HT29 colon
MCF7 breast = system: MCF7 breast
BT-549 breast = system: BT-549 breast
MDA-MB-435 = system: MDA-MB-435
MDA-MB-231 breast = system: MDA-MB-231 breast
PC-3 prostate = system: PC-3 prostate
SF-295 CNS = system: SF-295 CNS
HCC-2998 colon = system: HCC-2998 colon
UACC-257 melanoma = system: UACC-257 melanoma
TK-10 renal = system: TK-10 renal
SW-620 colon = system: SW-620 colon
A549 NSCLC = system: A549 NSCLC
MOLT-4 leukemia = system: MOLT-4 leukemia
T-47D breast = system: T-47D breast
A498 renal = system: A498 renal
SK-MEL-28 melanoma = system: SK-MEL-28 melanoma
SNB-75 CNS = system: SNB-75 CNS
HOP-92 NSCLC = system: HOP-92 NSCLC
CCRF-CEM leukemia = system: CCRF-CEM leukemia

Cc1ccc(O)c(-c2cc(-c3cccc(Br)c3)c(C#N)c(N)n2)c1
TGI (COLO 205 colon): 34.2 µM | TGI (NCI-H23 lung): > 100 µM | TGI (EKVX NSCLC): 65.5 µM | TGI (786-0 renal): > 100 µM | TGI (SNB-19 CNS): 45.7 µM | TGI (HCT-15 colon): 30.6 µM | TGI (OVCAR-8 ovarian): > 100 µM | TGI (DU-145 prostate): > 100 µM | TGI (UO-31 renal): 72.7 µM | TGI (HL-60(TB) leukemia): 72 µM | TGI (SN12C renal): 49.7 µM | TGI (MALME-3M melanoma): 63.1 µM | TGI (RXF 393 renal): 62.5 µM | TGI (NCI-H522 lung): 47.8 µM | TGI (SF-539 CNS): 75.5 µM | TGI (SK-MEL-5 melanoma): 60 µM | TGI (SK-MEL-2 melanoma): 51.6 µM | TGI (RPMI-8226 leukemia): 28 µM | TGI (NCI-H460 lung): 55.7 µM | TGI (UACC-62 melanoma): 37.4 µM | TGI (LOX IMVI melanoma): 31.1 µM | TGI (SF-268 CNS): > 100 µM | TGI (M14 melanoma): 89.2 µM | TGI (IGROV1 ovarian): 50.9 µM | TGI (CAKI-1 renal): 75.6 µM | TGI (HOP-62 NSCLC): > 100 µM | TGI (SK-OV-3 ovarian): 87.3 µM | TGI (SR leukemia): 46.8 µM | TGI (OVCAR-3 ovarian): > 100 µM | TGI (OVCAR-4 ovarian): 22.5 µM | TGI (HCT-116 colon): 42.4 µM | TGI (U251 CNS): 35.3 µM | TGI (MDA-N): 79.6 µM | TGI (ACHN renal): 49.3 µM | TGI (NCI/ADR-RES ovarian): > 100 µM | TGI (KM12 colon): 58.9 µM | TGI (OVCAR-5 ovarian): > 100 µM | TGI (NCI-H226 lung): 44.1 µM | TGI (K-562 leukemia): 57.3 µM | TGI (HS 578T breast): 62.8 µM | TGI (HT29 colon): 54.7 µM | TGI (MCF7 breast): 92 µM | TGI (BT-549 breast): > 100 µM | TGI (MDA-MB-435): 39.8 µM | TGI (MDA-MB-231 breast): 52.7 µM | TGI (PC-3 prostate): 55.6 µM | TGI (SF-295 CNS): 54.2 µM | TGI (HCC-2998 colon): 48.6 µM | TGI (UACC-257 melanoma): 52 µM | TGI (TK-10 renal): 40.2 µM | TGI (SW-620 colon): 89.8 µM | TGI (A549 NSCLC): 87.1 µM | TGI (MOLT-4 leukemia): 77.1 µM | TGI (T-47D breast): 76.2 µM

COc1ccc(C(c2ccc(OC)cc2)N2C(=O)CCC2C(=O)O)cc1 (configuration not stated)
TGI (COLO 205 colon): > 100 µM | TGI (NCI-H23 lung): > 100 µM | TGI (EKVX NSCLC): > 100 µM | TGI (786-0 renal): > 100 µM | TGI (SNB-19 CNS): > 100 µM | TGI (HCT-15 colon): > 100 µM | TGI (OVCAR-8 ovarian): > 100 µM | TGI (DU-145 prostate): > 100 µM | TGI (UO-31 renal): > 100 µM | TGI (A498 renal): > 100 µM | TGI (HL-60(TB) leukemia): > 100 µM | TGI (SN12C renal): > 100 µM | TGI (MALME-3M melanoma): > 100 µM | TGI (NCI-H522 lung): > 100 µM | TGI (SF-539 CNS): > 100 µM | TGI (SK-MEL-5 melanoma): > 100 µM | TGI (SK-MEL-2 melanoma): > 100 µM | TGI (SK-MEL-28 melanoma): > 100 µM | TGI (RPMI-8226 leukemia): > 100 µM | TGI (NCI-H460 lung): > 100 µM | TGI (UACC-62 melanoma): > 100 µM | TGI (LOX IMVI melanoma): > 100 µM | TGI (SF-268 CNS): > 100 µM | TGI (M14 melanoma): > 100 µM | TGI (IGROV1 ovarian): > 100 µM | TGI (CAKI-1 renal): > 100 µM | TGI (HOP-62 NSCLC): > 100 µM | TGI (SK-OV-3 ovarian): > 100 µM | TGI (SR leukemia): > 100 µM | TGI (OVCAR-3 ovarian): > 100 µM | TGI (OVCAR-4 ovarian): > 100 µM | TGI (HCT-116 colon): > 100 µM | TGI (U251 CNS): > 100 µM | TGI (MDA-N): > 100 µM | TGI (ACHN renal): > 100 µM | TGI (NCI/ADR-RES ovarian): > 100 µM | TGI (SNB-75 CNS): > 100 µM | TGI (KM12 colon): > 100 µM | TGI (HOP-92 NSCLC): > 100 µM | TGI (OVCAR-5 ovarian): > 100 µM | TGI (NCI-H226 lung): > 100 µM | TGI (K-562 leukemia): > 100 µM | TGI (HS 578T breast): > 100 µM | TGI (HT29 colon): > 100 µM | TGI (MCF7 breast): > 100 µM | TGI (BT-549 breast): > 100 µM | TGI (MDA-MB-435): > 100 µM | TGI (MDA-MB-231 breast): > 100 µM | TGI (CCRF-CEM leukemia): > 100 µM | TGI (PC-3 prostate): > 100 µM | TGI (SF-295 CNS): > 100 µM | TGI (HCC-2998 colon): > 100 µM | TGI (UACC-257 melanoma): > 100 µM | TGI (TK-10 renal): > 100 µM | TGI (SW-620 colon): > 100 µM | TGI (A549 NSCLC): > 100 µM | TGI (MOLT-4 leukemia): > 100 µM | TGI (T-47D breast): > 100 µM

O=C(Nc1ccn(C2CCC(CO)O2)c(=O)n1)c1ccccc1 (configuration not stated)
TGI (COLO 205 colon): > 100 µM | TGI (NCI-H23 lung): > 100 µM | TGI (EKVX NSCLC): > 100 µM | TGI (786-0 renal): > 100 µM | TGI (SNB-19 CNS): > 100 µM | TGI (HCT-15 colon): > 100 µM | TGI (OVCAR-8 ovarian): > 100 µM | TGI (DU-145 prostate): > 100 µM | TGI (UO-31 renal): > 100 µM | TGI (A498 renal): > 100 µM | TGI (HL-60(TB) leukemia): > 100 µM | TGI (SN12C renal): > 100 µM | TGI (MALME-3M melanoma): > 100 µM | TGI (RXF 393 renal): > 100 µM | TGI (NCI-H522 lung): > 100 µM | TGI (SF-539 CNS): > 100 µM | TGI (SK-MEL-5 melanoma): > 100 µM | TGI (SK-MEL-2 melanoma): > 100 µM | TGI (SK-MEL-28 melanoma): > 100 µM | TGI (RPMI-8226 leukemia): > 100 µM | TGI (UACC-62 melanoma): > 100 µM | TGI (LOX IMVI melanoma): > 100 µM | TGI (SF-268 CNS): > 100 µM | TGI (M14 melanoma): > 100 µM | TGI (IGROV1 ovarian): > 100 µM | TGI (CAKI-1 renal): > 100 µM | TGI (HOP-62 NSCLC): > 100 µM | TGI (SK-OV-3 ovarian): > 100 µM | TGI (SR leukemia): > 100 µM | TGI (HCT-116 colon): > 100 µM | TGI (U251 CNS): > 100 µM | TGI (MDA-N): > 100 µM | TGI (ACHN renal): > 100 µM | TGI (NCI/ADR-RES ovarian): > 100 µM | TGI (SNB-75 CNS): > 100 µM | TGI (KM12 colon): > 100 µM | TGI (OVCAR-5 ovarian): > 100 µM | TGI (NCI-H226 lung): > 100 µM | TGI (K-562 leukemia): > 100 µM | TGI (HS 578T breast): > 100 µM | TGI (HT29 colon): > 100 µM | TGI (MCF7 breast): > 100 µM | TGI (BT-549 breast): > 100 µM | TGI (MDA-MB-435): > 100 µM | TGI (MDA-MB-231 breast): > 100 µM | TGI (CCRF-CEM leukemia): > 100 µM | TGI (PC-3 prostate): > 100 µM | TGI (SF-295 CNS): > 100 µM | TGI (HCC-2998 colon): > 100 µM | TGI (UACC-257 melanoma): > 100 µM | TGI (TK-10 renal): > 100 µM | TGI (SW-620 colon): > 100 µM | TGI (A549 NSCLC): > 100 µM | TGI (MOLT-4 leukemia): > 100 µM | TGI (T-47D breast): > 100 µM
